Reference: ChEMBL document CHEMBL5131541, “Structural Feature Analyzation Strategies toward Discovery of Orally Bioavailable PROTACs of Bruton's Tyrosine Kinase for the Treatment of Lymphoma” (J Med Chem, 2022)

Experiments:
cells = settings: Homo sapiens, MINO
[1] = AUC (0 to t) in Sprague-Dawley rat at 10 mg/kg, po administered as cassette dose measured upto 24 hrs by LC-MS analysis; assay type: ADME, organism-based; design: dose 10 mg/kg, time < 24 hrs, route po; settings: in vivo
[2] = Cmax in Sprague-Dawley rat at 10 mg/kg, po administered as cassette dose measured upto 24 hrs by LC-MS analysis; assay type: ADME, organism-based; design: time < 24 hrs, dose 10 mg/kg, route po; settings: in vivo
[3] = Tmax in Sprague-Dawley rat at 10 mg/kg, po administered as cassette dose measured upto 24 hrs by LC-MS analysis; assay type: ADME, organism-based; settings: in vivo
[4] = target: T1, Tyrosine-protein kinase BTK (Homo sapiens, UniProt Q06187); assay: Inhibition of BTK (unknown origin)
T1 sequence (Q06187 whole entry): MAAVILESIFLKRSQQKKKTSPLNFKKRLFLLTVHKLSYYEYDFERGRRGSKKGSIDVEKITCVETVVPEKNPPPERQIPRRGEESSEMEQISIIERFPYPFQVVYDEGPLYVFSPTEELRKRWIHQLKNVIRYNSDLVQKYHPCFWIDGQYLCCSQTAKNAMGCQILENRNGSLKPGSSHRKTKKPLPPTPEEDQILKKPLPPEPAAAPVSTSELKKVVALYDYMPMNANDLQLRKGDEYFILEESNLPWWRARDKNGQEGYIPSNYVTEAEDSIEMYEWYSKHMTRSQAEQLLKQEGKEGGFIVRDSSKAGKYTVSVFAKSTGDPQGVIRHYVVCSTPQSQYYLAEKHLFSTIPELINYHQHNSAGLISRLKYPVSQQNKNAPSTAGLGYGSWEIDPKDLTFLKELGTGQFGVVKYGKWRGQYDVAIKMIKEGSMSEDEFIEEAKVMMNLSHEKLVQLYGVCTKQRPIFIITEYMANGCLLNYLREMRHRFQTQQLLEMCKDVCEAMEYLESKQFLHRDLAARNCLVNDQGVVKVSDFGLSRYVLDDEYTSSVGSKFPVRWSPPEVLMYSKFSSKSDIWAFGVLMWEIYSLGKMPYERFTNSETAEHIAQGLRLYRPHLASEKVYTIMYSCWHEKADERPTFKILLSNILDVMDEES

OCI-Ly10 = assay: cells; settings: Homo sapiens
[5] = target: Tyrosine-protein kinase BTK (Mus musculus) (UniProt P35991); assay: In vivo induction of BTK degradation in ICR mouse monocytes at 20 mg/kg, po after 8 hrs by Western blot analysis relative to control; assay type: functional, organism-based; settings: Monocyte
Chain of Tyrosine-protein kinase BTK (Mus musculus) (P35991 whole entry): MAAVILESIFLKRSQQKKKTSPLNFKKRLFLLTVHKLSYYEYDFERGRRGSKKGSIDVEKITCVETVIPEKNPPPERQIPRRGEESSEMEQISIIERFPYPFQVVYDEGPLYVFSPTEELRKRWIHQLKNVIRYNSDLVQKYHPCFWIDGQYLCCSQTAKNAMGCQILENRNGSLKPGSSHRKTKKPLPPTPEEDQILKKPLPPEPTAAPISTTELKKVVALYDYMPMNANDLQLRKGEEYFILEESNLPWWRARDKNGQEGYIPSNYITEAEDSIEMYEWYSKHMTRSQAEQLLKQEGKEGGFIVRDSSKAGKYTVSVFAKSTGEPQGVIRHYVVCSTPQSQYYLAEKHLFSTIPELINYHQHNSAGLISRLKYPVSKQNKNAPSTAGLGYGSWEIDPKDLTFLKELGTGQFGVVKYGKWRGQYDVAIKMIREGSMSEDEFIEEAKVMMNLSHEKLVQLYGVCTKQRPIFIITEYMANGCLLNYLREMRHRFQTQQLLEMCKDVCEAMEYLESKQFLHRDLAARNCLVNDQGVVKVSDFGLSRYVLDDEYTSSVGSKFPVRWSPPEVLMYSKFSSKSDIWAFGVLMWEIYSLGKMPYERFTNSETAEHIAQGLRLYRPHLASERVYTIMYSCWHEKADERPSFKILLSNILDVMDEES

JeKo-1 [6] = assay: cells; settings: Homo sapiens
[7] = Cmax in ICR mouse at 20 mg/kg, po administered as single dose measured upto 48 hrs by LC-MS analysis; assay type: ADME, organism-based; design: dose 20 mg/kg, time < 48 hrs, route po; settings: in vivo
[8] = Half life in ICR mouse at 20 mg/kg, po administered as single dose measured upto 48 hrs by LC-MS analysis; assay type: ADME, organism-based; settings: in vivo
[9] = Tmax in ICR mouse at 20 mg/kg, po administered as single dose measured upto 48 hrs by LC-MS analysis; assay type: ADME, organism-based; settings: in vivo
TMD8 = assay: cells; settings: Homo sapiens
[10] = Half life in Sprague-Dawley rat at 10 mg/kg, po administered as cassette dose measured upto 24 hrs by LC-MS analysis; assay type: ADME, organism-based; settings: in vivo
[11] = Dose normalized AUC (0 to t) in Sprague-Dawley rat at 10 mg/kg, po administered as cassette dose measured upto 24 hrs by LC-MS analysis; assay type: ADME, organism-based; settings: in vivo
[12] = AUC (0 to infinity) in ICR mouse at 20 mg/kg, po administered as single dose measured upto 48 hrs by LC-MS analysis; assay type: ADME, organism-based; design: dose 20 mg/kg, time < 48 hrs, route po; settings: in vivo
JeKo-1 [13] = assay: cells; settings: Homo sapiens; remark: listed apart in the source
[14] = target: T1, Tyrosine-protein kinase BTK; assay: Induction of BTK degradation in human MINO cells incubated for 24 hrs by Western blot analysis; assay type: cell-based; settings: dose 1-1000 nM, DDE = dose-dependent effect
[15] = AUC (0 to t) in ICR mouse at 20 mg/kg, po administered as single dose measured upto 48 hrs by LC-MS analysis; assay type: ADME, organism-based; design: dose 20 mg/kg, time < 48 hrs, route po; settings: in vivo
MM1.S = assay: cells; settings: Homo sapiens
[16] = target: T1, Tyrosine-protein kinase BTK; assay: Induction of BTK degradation in human MINO cells at 1000 nM incubated for 24 hrs by Western blot; assay type: cell-based
[17] = target: T1, Tyrosine-protein kinase BTK; assay: Induction of BTK degradation in human MINO cells incubated for 24 hrs by Western blot; assay type: cell-based; settings: dose 1-1000 nM, DDE = dose-dependent effect

Nc1ncnc2c1c(-c1ccc(Oc3ccccc3)cc1)nn2[C@@H]1CCCN(C(=O)CCC(=O)N2CCN(CC#Cc3ccc4c(c3)CN(C3CCC(=O)NC3=O)C4=O)CC2)C1 (some centres not stated)
IC50 (cells): 123 nM
AUC(0-t) at 24 h [1]: 288 ng·h/mL
Cmax [2]: 84 ng/mL
Tmax [3]: 0.7 h
IC50 [4]: 6.3 nM
IC50 (OCI-Ly10): 12.9 nM
Activity [5]: 37.2%
IC50 (JeKo-1 [6]): 11600 nM
Cmax [7]: 224 ng/mL
half-life [8]: 2.6 h
Tmax [9]: 0.5 h
IC50 (TMD8): 16.3 nM
half-life [10]: 6.5 h
AUCt/dose [11]: 29 ng·h/mL/mg
AUC(0-inf) [12]: 404 ng·h/mL
IC50 (JeKo-1 [13]): 825 nM
Activity [14]: Dde
AUC(0-t) at 48 h [15]: 374 ng·h/mL
IC50 (MM1.S): 1920 nM

Nc1ncnc2c1c(-c1ccc(Oc3ccccc3)cc1)nn2[C@@H]1CCCN(C(=O)CCCC(=O)NCC#CCN2CCN(CC#Cc3ccc4c(c3)CN(C3CCC(=O)NC3=O)C4=O)CC2)C1 (some centres not stated)
IC50 [4]: 9 nM
Activity [16]: > 50%
Activity [17]: Dde
